The text below walks through data of patent publication US20240228458A1, “PYRIMIDINE DERIVATIVE HAVING PROTEIN KINASE INHIBITORY ACTIVITY, AND THERAPEUTIC PHARMACEUTICAL COMPOSITION COMPRISING SAME” (THERAPEX CO., LTD., priority 2021, published 2024).

In general, GI50 refers to the concentration giving 50% growth inhibition.

What all share (format): cell-based
Assay [1] relates to Ba/F3 cells expressing L858R/T790M/C797S (EGFR-LTC). Briefly: Growth inhibition (GI50) of Ba/F3 cells expressing L858R/T790M/C797S (EGFR-LTC), Celltiter glo. Conditions: Mus musculus, BaF3, 72 h. The method in brief: (§1)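 Ba/F3 cells carrying each EGFR variant were plated at 100,000 cells/ml; after 4 h, compound was added as 10-point 4-fold dilutions (top stock 2 mM, 0.5% DMSO). After 72 h at 37 °C, viability was read by CellTiter-Glo; GI50 is the molar concentration (μM) giving 50% growth inhibition.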
(In general: Cellular ATP, detected with luciferase, serves as a proxy for viable cell number.)

The test system of assay [2] is Ba/F3 cells expressing EGFR-wt. Briefly: Growth inhibition (GI50) of Ba/F3 cells expressing EGFR-wt, Celltiter glo. Conditions: Mus musculus, BaF3, 72 h. The method, boiled down:
as §1

Assay [3] has as its system Ba/F3 cells expressing L858R/T790M (EGFR-LT). Briefly: Growth inhibition (GI50) of Ba/F3 cells expressing L858R/T790M (EGFR-LT), Celltiter glo. Conditions: Mus musculus, BaF3, 72 h. The method in brief:
as §1

Assay [4] relates to Ba/F3 cells expressing del19/T790M/C797S (EGFR-DTC). Briefly: Growth inhibition (GI50) of Ba/F3 cells expressing del19/T790M/C797S (EGFR-DTC), Celltiter glo. The conditions noted are these: Mus musculus, BaF3, 72 h. The method in brief: as §1
The test system of assay [5] is Ba/F3 cells expressing del19/T790M (EGFR-DT). Briefly: Growth inhibition (GI50) of Ba/F3 cells expressing del19/T790M (EGFR-DT), Celltiter glo. Conditions: Mus musculus, BaF3, 72 h. The method in brief:
as §1

For another assay, the system named is parental Ba/F3 cell line. Briefly: Growth inhibition (GI50) of the parental Ba/F3 cell line (not introduced with EGFR variants), Celltiter glo. The conditions noted are these: Mus musculus, BaF3, 72 h, parental Ba/F3 cells. The method, boiled down: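 Viable cell count by CellTiter-Glo after 72 h at 37 °C gave GI50 values (μM, 50% growth inhibition). Cells lacking EGFR variants were seeded at 100,000 cells/ml and dosed 4 h later with 4-fold serial dilutions from a 2 mM stock, 0.5% DMSO.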

For `COc1nc(N2CCC(N3CCN(C)CC3)CC2)c(C)cc1Nc1ncc(Cl)c(Nc2ccc3nccnc3c2NS(C)(=O)=O)n1` [Example 134, N-(6-((5-chloro-2-((2-methoxy-5-methyl-6-(4-(4-methylpiperazin-1-yl)piperidin-1-yl)pyridin-3-yl)amino)pyrimidin-4-yl)amino)quinoxalin-5-yl)methanesulfonamide], the GI50 was 25 to 100 nM in assay [1]; 100 to 500 nM in assay [2]; 100 to 500 nM in assay [3]; 25 to 100 nM in assay [4]; 100 to 500 nM in assay [5]; 100 to 500 nM in the assay with parental Ba/F3 cell line.
For the compound `CN1CCN(C2CCN(c3ccc(Nc4ncc(Cl)c(Nc5cc6c(cc5NS(C)(=O)=O)CCO6)n4)c(Cl)c3)CC2)CC1` [Example 221, N-(6-((5-chloro-2-((2-chloro-4-(4-(4-methylpiperazin-1-yl)piperidin-1-yl)phenyl)amino)pyrimidin-4-yl)amino)-2,3-dihydrobenzofuran-5-yl)methanesulfonamide], the GI50 in assay [1] lay in the range of 25 to 100 nM; in assay [2] it was 100 to 500 nM; in assay [3] it was 25 to 100 nM; in assay [4], 25 to 100 nM; in assay [5], 25 to 100 nM; in the assay on parental Ba/F3 cell line it was 500 to 2000 nM.
As to `CN1CCN(C2CCN(c3cc(Cl)c(Nc4ncc(Br)c(Nc5cc(Cl)ccc5N(C)S(C)(=O)=O)n4)cc3Cl)CC2)CC1` [Example 228, N-(2-((5-bromo-2-((2,5-dichloro-4-(4-(4-methylpiperazin-1-yl)piperidin-1-yl)phenyl)amino)pyrimidin-4-yl)amino)-4-chlorophenyl)-N-methylmethanesulfonamide], the GI50 in assay [1] was in the range of 25 to 100 nM; in assay [2] it was 100 to 500 nM; in assay [3], 1 to 25 nM; in assay [4] it was 1 to 25 nM; in assay [5], 25 to 100 nM; in the assay with parental Ba/F3 cell line it was 100 to 500 nM.
In the case of `COc1cc(N2CCC(N3CCCN(C)CC3)CC2)c(Cl)cc1Nc1ncc(Cl)c(Nc2cc3c(cc2N(C)S(C)(=O)=O)CCO3)n1` [Example 264, N-(6-((5-chloro-2-((5-chloro-2-methoxy-4-(4-(4-methyl-1,4-diazepan-1-yl)piperidin-1-yl)phenyl)amino)pyrimidin-4-yl)amino)-2,3-dihydrobenzofuran-5-yl)-N-methylmethanesulfonamide], the GI50 in assay [1] is 25 to 100 nM; in assay [2], 100 to 500 nM; in assay [3] it was 1 to 25 nM; in assay [4] it was 25 to 100 nM; in assay [5], 1 to 25 nM; in the assay on parental Ba/F3 cell line it was 2000 to 10000 nM.
`COc1cc(N2CCC(N3CCN(C)CC3)CC2)c(C)cc1Nc1ncc(Cl)c(Nc2cc3c(cc2NS(C)(=O)=O)CCO3)n1` [Example 140, N-(6-((5-chloro-2-((2-methoxy-5-methyl-4-(4-(4-methylpiperazin-1-yl)piperidin-1-yl)phenyl)amino)pyrimidin-4-yl)amino)-2,3-dihydrobenzofuran-5-yl)methanesulfonamide]: the GI50 in assay [1] was in the range of 1 to 25 nM; in assay [2], 100 to 500 nM; in assay [3], 25 to 100 nM; in assay [4] it was 25 to 100 nM; in assay [5], 1 to 25 nM; in the assay on parental Ba/F3 cell line, 500 to 2000 nM.
`Cc1cc(Nc2ncc(Br)c(Nc3cc4c(cc3NS(C)(=O)=O)CCO4)n2)c(Cl)cc1N1CCC(N2CCCC(N(C)C)C2)CC1` (stereo not drawn) [Example 214, N-(6-((5-bromo-2-((2-chloro-4-(3-(dimethylamino)-[1,4′-bipiperidin]-1′-yl)-5-methylphenyl)amino)pyrimidin-4-yl)amino)-2,3-dihydrobenzofuran-5-yl)methanesulfonamide]: the GI50 lay within 25 to 100 nM in assay [1]; 100 to 500 nM in assay [2]; 1 to 25 nM in assay [3]; 25 to 100 nM in assay [4]; 1 to 25 nM in assay [5]; 2000 to 10000 nM in the assay on parental Ba/F3 cell line.
On to `COc1cc(N2CCC(N3CCN(C)CC3)CC2)ccc1Nc1ncc(Br)c(Nc2cc3c(cc2NS(C)(=O)=O)CCO3)n1` [Example 243, N-(6-((5-bromo-2-((2-methoxy-4-(4-(4-methylpiperazin-1-yl)piperidin-1-yl)phenyl)amino)pyrimidin-4-yl)amino)-2,3-dihydrobenzofuran-5-yl)methanesulfonamide], for which the GI50 lay in the range of 1 to 25 nM in assay [1]; 500 to 2000 nM in assay [2]; 1 to 25 nM in assay [3]; 100 to 500 nM in assay [4]; 100 to 500 nM in assay [5]; 2000 to 10000 nM in the assay with parental Ba/F3 cell line.
`COc1cc(N2CCC(N3CCN(C)CC3)CC2)c(C)cc1Nc1ncc(Br)c(Nc2cc(Cl)ccc2N(C)S(C)(=O)=O)n1` [Example 155, N-(2-((5-bromo-2-((2-methoxy-5-methyl-4-(4-(4-methylpiperazin-1-yl)piperidin-1-yl)phenyl)amino)pyrimidin-4-yl)amino)-4-chlorophenyl)-N-methylmethanesulfonamide]: the concentration for 50% growth inhibition (GI50) in assay [1] fell in the range of 1 to 25 nM; in assay [2], 25 to 100 nM; in assay [3], 25 to 100 nM; in assay [4], 1 to 25 nM; in assay [5], 1 to 25 nM; in the assay on parental Ba/F3 cell line, 100 to 500 nM.
Take `Cc1cc(Nc2ncc(Cl)c(Nc3cc(Cl)ccc3N(C)S(C)(=O)=O)n2)c(Cl)cc1N1CCC(N2CCC(N(C)C)C2)CC1` (stereo not drawn) [Example 179, N-(4-chloro-2-((5-chloro-2-((2-chloro-4-(4-(3-(dimethylamino)pyrrolidin-1-yl)piperidin-1-yl)-5-methylphenyl)amino)pyrimidin-4-yl)amino)phenyl)-N-methylmethanesulfonamide]: the concentration for 50% growth inhibition (GI50) in assay [1] fell in the range of 25 to 100 nM; in assay [2] it was 100 to 500 nM; in assay [3], 25 to 100 nM; in assay [4] it was 100 to 500 nM; in assay [5], 100 to 500 nM; in the assay with parental Ba/F3 cell line, 500 to 2000 nM.
Take `COc1ccc(NS(C)(=O)=O)c(Nc2nc(Nc3cc(Cl)c(N4CCC(N5CCN(C)CC5)CC4)cc3OC)ncc2Cl)c1` [Example 201, N-(2-((5-chloro-2-((5-chloro-2-methoxy-4-(4-(4-methylpiperazin-1-yl)piperidin-1-yl)phenyl)amino)pyrimidin-4-yl)amino)-4-methoxyphenyl)methanesulfonamide]: the concentration for 50% growth inhibition (GI50) in assay [1] lay in the range of 1 to 25 nM; in assay [2], 1 to 25 nM; in assay [3], 1 to 25 nM; in assay [4] it was 1 to 25 nM; in assay [5], 1 to 25 nM; with parental Ba/F3 cell line it was 25 to 100 nM.
In the case of `COc1cc(N2CCC(N3CCC(N(C)C)C3)CC2)c(C)cc1Nc1ncc(Br)c(Nc2cc3c(cc2N(C)S(C)(=O)=O)CCO3)n1` (stereo not drawn) [Example 262, N-(6-((5-bromo-2-((4-(4-(3-(dimethylamino)pyrrolidin-1-yl)piperidin-1-yl)-2-methoxy-5-methylphenyl)amino)pyrimidin-4-yl)amino)-2,3-dihydrobenzofuran-5-yl)-N-methylmethanesulfonamide], the GI50 was in the range of 25 to 100 nM in assay [1]; 100 to 500 nM in assay [2]; 25 to 100 nM in assay [3]; 25 to 100 nM in assay [4]; 1 to 25 nM in assay [5]; 25 to 100 nM in the assay on parental Ba/F3 cell line.
Take `CN1CCN(C2CCN(c3cc(Cl)c(Nc4ncc(Cl)c(Nc5cc6c(cc5N(C)S(C)(=O)=O)CCO6)n4)cc3Cl)CC2)CC1` [Example 259, N-(6-((5-chloro-2-((2,5-dichloro-4-(4-(4-methylpiperazin-1-yl)piperidin-1-yl)phenyl)amino)pyrimidin-4-yl)amino)-2,3-dihydrobenzofuran-5-yl)-N-methylmethanesulfonamide]: the GI50 was 100 to 500 nM in assay [1]; 500 to 2000 nM in assay [2]; 25 to 100 nM in assay [3]; 1 to 25 nM in assay [4]; 25 to 100 nM in assay [5]; 500 to 2000 nM with parental Ba/F3 cell line.
`COc1nc(N2CCN(C3COC3)CC2)ccc1Nc1ncc(Cl)c(Nc2ccc(F)cc2NS(C)(=O)=O)n1` [Example 22, N-(2-((5-chloro-2-((2-methoxy-6-(4-(oxetan-3-yl)piperazin-1-yl)pyridin-3-yl)amino)pyrimidin-4-yl)amino)-5-fluorophenyl)methanesulfonamide]: the GI50 in assay [1] lay within 500 to 2000 nM; in assay [2], 2000 to 10000 nM; in assay [3], 2000 to 10000 nM; in assay [4] it was 500 to 2000 nM; in assay [5], 25 to 100 nM; with parental Ba/F3 cell line, 500 to 2000 nM.
For the compound `Cc1cc(Nc2ncc(Br)c(Nc3ccccc3N=S(C)(C)=O)n2)c(Cl)cc1N1CCC(N2CCN(C)CC2)CC1` [Example 144], the GI50 in assay [1] lay in the range of 100 to 500 nM; in assay [2], 500 to 2000 nM; in assay [3], 100 to 500 nM; in assay [4], 500 to 2000 nM; in assay [5] it was 500 to 2000 nM; in the assay with parental Ba/F3 cell line, 500 to 2000 nM.
On to `COc1cc(N2CCC(N3CCN(C)CC3)CC2)c(Cl)cc1Nc1ncc(Br)c(Nc2cc(Cl)ccc2N(C)S(C)(=O)=O)n1` [Example 156, N-(2-((5-bromo-2-((5-chloro-2-methoxy-4-(4-(4-methylpiperazin-1-yl)piperidin-1-yl)phenyl)amino)pyrimidin-4-yl)amino)-4-chlorophenyl)-N-methylmethanesulfonamide], for which the GI50 in assay [1] was in the range of 1 to 25 nM; in assay [2] it was 1 to 25 nM; in assay [3] it was 1 to 25 nM; in assay [4], 1 to 25 nM; in assay [5], 1 to 25 nM; in the assay on parental Ba/F3 cell line, 100 to 500 nM.
